Tests used:
humans = conditions: doses as high as 60 mg/day; Hindmarch et al. 1991; cited from earlier work
[1] = system: epileptic cortical activity induced by 4-AP in guinea pigs; experiment: EEG recordings of cortical activity in 4-AP-induced epilepsy; assay type: in vivo, guinea pig; conditions: ictal (about 20 min) and post-ictal (30, 60, 80 min) periods; vinpocetine 2 mg/kg 1 h before 4-AP; FIGS. 6, 7
Method: Experiments were performed in pigmented adult male guinea pigs initially weighing 349±38 g. ABRs recordings were used to evaluate the hearing status of each animal and EEG recordings to evaluate changes in cortical excitability. The ABR and EEG recordings were obtained following a method that we have previously reported (Nekrassov and Sitges, 2003). The Institutional Animal Use and Care Committee approved all experimental procedures.
Three types of recordings were performed in the anaesthetized animals, namely the ABR recordings elicited by a stimulus of high intensity (100 dB), the ABR recordings for determination of the auditory threshold and the EEG recordings.
Five guinea pigs were entered into the study. One hour after injecting guinea pigs with vehicle (acidified saline used to dissolve vinpocetine) the animals were anaesthetized and a first set of ABR and EEG recordings was taken before the injection (i.p) of the convulsing agent, 4-AP. The animals were injected with 4-AP (2 mg/kg) and about 20 min after injecting 4-AP (ictal period) the EEG recording was taken. Then the other series of ABR and EEG recordings were taken at specific times within the post-ictal period. After two weeks the same series of recordings were repeated but instead vehicle the animals were injected with vinpocetine (2 mg/kg) 1 hour before the injection of 4-AP.
Vinpocetine inhibits all the changes induced by 4-AP on the EEG. […] This change on the cortical activity elicited by 4-AP for the ictal period is followed by the post-ictal period characterized by isolated spikes of higher amplitude that appear on the EEG about one hour after the injection of 4-AP. […] The top traces of FIG. 6 show the characteristic EEG recordings taken before the injection of 4-AP in the animals pre-injected with vehicle (a) and in the animals pre-injected with vinpocetine (b). The changes induced by 4-AP on for the ictal period are shown in the second trace on FIG. 6a. In the vinpocetine treated animals 4-AP was unable to induce the ictal activity (second trace on FIG. 6b).

In the case of CCOC(=O)C1=C[C@]2(CC)CCCN3CCc4c(n1c1ccccc41)[C@@H]32 [Vinpocetine, ethyl apovincamine-22-oate], the tolerability in humans (humans) is listed as “well tolerated and without contraindications” and the “effect on changes on the cortical activity (EEG) induced by 4-AP” value [1] is listed as “completely prevents”.
